Experimental data reported in patent US10280174B2, “Salt of fused pyrimidine compound and crystal thereof” (TAIHO PHARMACEUTICAL CO., LTD., priority 2015, dated 2019).

What was measured:
[1] = Moisture absorption/desorption test; type: physicochemical; details: for Weight change ratio, Adsorption / Weight change ratio, Desorption: 25° C.; for characteristic of channel hydrate: absorb/desorb moisture depending on humidity; for weight change at a maximum: humidified at a relative humidity of from 5 to 95%
Experimental: Moisture absorption/desorption test was carried out with respect to Compound A, monofumarate of Compound A, hemifumarate of Compound A, hemitartrate of Compound A and monophosphate of Compound A, to research the presence or absence of the characteristic of channel hydrate.
In the moisture absorption/desorption test, measurements were carried out according to the following conditions.
A dedicated quartz holder was filled with about from 5 to 10 mg of sample, and a weight of the sample at each humidity was measured and recorded in a continuous manner under the following conditions. Handling of the devices including data processing was based on the method and the process indicated in each device.
Device: VTI SA+ (manufactured by TA Instruments Inc.)
Drying temperature: 60° C.
Temperature rising speed: 1° C./min.
Equilibrium in drying: It is confirmed that no reduction of 0.01 wt % occurs in 5 minutes, in a range not exceeding 300 minutes.
Temperature for measurement: 25° C.
Equilibrium in humidification: It is confirmed that no increase of 0.01 wt % occurs in 5 minutes, in a range not exceeding 120 minutes.
Relative humidity program: Raised by 5% RH from 5% RH to 95% RH, and lowered by 5% RH from 95% RH to 5% RH.

[2] = Solid stability test (acceleration test), 40° C./75% RH; type: physicochemical
Experimental: Solid stability was measured under the following conditions, with respect to monofumarate of Compound A, hemifumarate of Compound A, hemitartrate of Compound A and monophosphate of Compound A which were obtained in the Examples and the Reference Examples, when they were stored for 2 weeks or 4 weeks at 40° C./75% RH (sealed condition and opened condition).
Storage condition: 40° C./75% RH (Sealed and Opened) (Opened refers to a condition where a glass container has the lid removed, and is covered with a KimWipe).
Points of measurement: 2 weeks and 4 weeks
(§1) Storage amount: About 30 mg
(§2) Storage container: Brown glass container
(§3) Method of preparing sample solution: Sample was dissolved in 50% acetonitrile such that a concentration of the sample would be 0.4 mg/mL.
Mass of analogous substance in the sample solution was measured by HPLC analysis. Handling of the devices including data processing was based on the method and the process indicated in each device. (Device: Shimadzu Corporation SIL-HTc/LC-20AB)
Column: InertSustein C18, 4.6×150 mm, 3 μm, manufactured by GL Sciences Inc.
MS detection: ESI positive
Column temperature: 40° C.
Column flow rate: 1.0 mL/min
Mobile phase: A; 10 mmol/L phosphate buffer (pH 6.0): Acetonitrile mixed solution (17:3), B; Acetonitrile
Amount of injection: 5 μL
In the Table, A, B and C refer to percentages of the total mass of analogous substance of less than 0.1%, 0.1% or more and less than 0.5%, and 0.5% or more, respectively. Incidentally, those marked with * were measured at 2 weeks' time and the others were measured at 4 weeks' time.

[3] = Solid stability test (severe test), 60° C.; type: physicochemical; details: 60° C. (Sealed)
Experimental: Solid stability was measured under the following conditions, with respect to monofumarate of Compound A, hemitartrate of Compound A and monophosphate of Compound A which were obtained in the Examples and the Reference Examples, when they were stored for 2 weeks or 4 weeks at 60° C.
Storage condition: 60° C. (Sealed)
Point of measurement: 2 weeks and 4 weeks
as §1, §2, §3
In the Table, A and B refer to percentages of the total mass of analogous substance of less than 0.1%, and 0.1% or more and less than 0.5%, respectively. Incidentally, the value marked with * was measured at 2 weeks and the others were measured at 4 weeks.

[4] = test system: mouse collagen-induced arthritis model; experiment: Mice collagen-induced arthritis model; type: in vivo, DBA/1 mice; details: 3 mg/kg, positive control, 17 days; FIG. 11
Experimental: The test was carried out in accordance with the method described in Non-Patent Literature (Brand D D, et al., Nat Protoc. 2007; 2, 1269-1275, Xu D. et al., JPET, 2012 April; 341 (1):90-103). Seven-week-old male/DBA/1 mice (CHARLES RIVER LABORATORIES JAPAN, INC.) were intracutaneously injected in the dorsum with 100 μL/body of an equal amount-mixed solution (emulsion) of 4 mg/mL of bovine type 2 collagen solution (Collagen Research Center) and Complete Freund's Adjuvant (DIFCO Inc.) (initial immunization). After 21 days therefrom, the mice were intracutaneously injected in the chine with 100 μL/body of an equal amount-mixed solution (emulsion) of 4 mg/mL of bovine type 2 collagen solution (Collagen Research Center) and Complete Freund's Adjuvant (DIFCO) to provide an additional immunization. The oral administration of 1 time per day was continued for 17 days setting the administration initiation day (day 0) as the eighth day from the additional immunization. Symptoms of arthritis in day 0, day 3, day 7, day 10, day 14 and day 17 were scored macroscopically (0: No change, 1: Swelling of a finger, 2: Swelling of two fingers or more, 3: Swelling of instep, 4: Swelling of all fingers extending wrist/ankle), and a total in four limbs was obtained as a point of individual body (maximum 16 points).

[5] = Research of base addition salts of Compound A (solubility observation); type: physicochemical; details: water / organic solvent, in words
Experimental: A research was carried out on salt formation with sodium and magnesium, among inorganic bases. Specifically, Compound A was dissolved in an appropriate solvent, and each kind of the bases was added thereto (from 0.5 to 1.5 equivalent), and stirring was carried out for overnight, to thereby determine whether or not a salt formation occurred. As a result, in salt formation with sodium, decomposition remarkably proceeded, and therefore, the research was suspended. From the case of magnesium, hemi magnesium salt of Compound A was obtained (Reference Example 6).

in vivo = details: Balb/cA, mouse, po, 50 mg/kg
Experimental: (§4) These administration solutions were orally administered to mice (Balb/cA) which had been bred under a feeding condition, at a dose of 10 mL per 1 kg body weight, with a sonde for oral administration. After the administration, the mice were returned to a cage for mice and conditions were checked. Inside the cage was provided with a condition where water and food were accessible ad libitum. After 0.25, 0.5, 1, 2, 4 and 6 hours from the administration, the mice were anesthetized with isoflurane, and 60 μL of blood was collected from orbital sinus with a capillary blood collection tube.
(§5) The collected blood was ice cooled, and blood plasma was separated by a centrifugal operation. The mice after the blood collection was returned to an animal breeding cage, and conditions after recovery from the anesthesia were checked. When the last blood collection was finished, the mice were euthanized by cervical dislocation, after a level check of isoflurane anesthesia.
(§6) AUC0-6 hr, Cmax and Tmax were calculated by linear-log trapezoid method with Phoenix WinNonlin (v6.3.0) which is a software manufactured by Pharsight Corporation, from a concentration of Compound A in each blood plasma measured by MRM method with LC-MS/MS.

[6] = Blood concentration measurement test after oral administration; details: mice
Experimental: as §4, §5, §6

[7] = 50 mg/kg in terms of Compound A, 0.5% HPMC suspension, plasma Compound A

Row | SMILES | Weight change ratio, Adsorption ([1]; relative humidity 5%) | Weight change ratio, Desorption ([1]; relative humidity 5%) | Weight change ratio, Adsorption ([1]; relative humidity 20%) | Weight change ratio, Desorption ([1]; relative humidity 20%) | Weight change ratio, Adsorption ([1]; relative humidity 40%) | Weight change ratio, Desorption ([1]; relative humidity 40%) | Weight change ratio, Adsorption ([1]; relative humidity 60%) | Weight change ratio, Desorption ([1]; relative humidity 60%) | Weight change ratio, Adsorption ([1]; relative humidity 80%) | Weight change ratio, Desorption ([1]; relative humidity 80%) | Weight change ratio, Adsorption ([1]; relative humidity 95%) | Weight change ratio, Desorption ([1]; relative humidity 95%) | weight change at a maximum [1] | total mass of analogous substance ([2]; Opened, 4 weeks) | total mass of analogous substance ([2]; Sealed, 4 weeks) | characteristic of channel hydrate [1] | also measured
1 | C=CC(=O)N1CCC[C@@H](n2nc(C(=O)Nc3nc4ccccc4o3)c3c(N)ncnc32)C1.O=P(O)(O)O [monophosphate of Compound A, (R)-1-(1-acryloylpiperidin-3-yl)-4-amino-N-(benzo[d]oxazol-2-yl)-1H-pyrazolo[3,4-d]pyrimidine-3-carboxamide.monophosphate] | 0.01% | 5.76% | 0.19% | 8.06% | 0.36% | 9.29% | 0.61% | 10.38% | 1.29% | 12.12% | 17.90% | 17.90% |  |  |  |  | crystal form after the moisture absorption/desorption test [1]: did not maintain the original crystal form; total mass of analogous substance ([2]; Opened, 2 weeks (marked *)): C* (0.5% or more); total mass of analogous substance ([2]; Sealed, 2 weeks (marked *)): C* (0.5% or more); total mass of analogous substance ([3]; 2 weeks (marked *)): B* (0.1% or more and less than 0.5%)
2 | C[C@]12C=CC(=O)C=C1CC[C@@H]1[C@@H]2[C@@H](O)C[C@@]2(C)[C@H]1CC[C@]2(O)C(=O)CO [prednisolone, reference compound] |  |  |  |  |  |  |  |  |  |  |  |  |  |  |  |  | arthritis score [4]: only in a degree of maintaining the raised arthritis score
3 | C=CC(=O)N1CCC[C@@H](n2nc(C(=O)Nc3nc4ccccc4o3)c3c(N)ncnc32)C1.C=CC(=O)N1CCC[C@@H](n2nc(C(=O)Nc3nc4ccccc4o3)c3c(N)ncnc32)C1.O=C(O)C(O)C(O)C(=O)O [hemitartrate of Compound A, (R)-1-(1-acryloylpiperidin-3-yl)-4-amino-N-(benzo[d]oxazol-2-yl)-1H-pyrazolo[3,4-d]pyrimidine-3-carboxamide.hemi-L-(+)-tartrate] | 0.01% | −0.28% | 1.25% | 1.17% | 1.56% | 1.32% | 1.67% | 1.45% | 1.64% | 1.72% | 3.31% | 3.31% | about 3.3% | B (0.1% or more and less than 0.5%) | B (0.1% or more and less than 0.5%) | had the characteristic of channel hydrate | total mass of analogous substance ([3]; 4 weeks): B (0.1% or more and less than 0.5%)
4 | C=CC(=O)N1CCC[C@@H](n2nc(C(=O)Nc3nc4ccccc4o3)c3c(N)ncnc32)C1.C=CC(=O)N1CCC[C@@H](n2nc(C(=O)Nc3nc4ccccc4o3)c3c(N)ncnc32)C1.[Mg] [hemi magnesium salt of Compound A, (R)-1-(1-acryloylpiperidin-3-yl)-4-amino-N-(benzo[d]oxazol-2-yl)-1H-pyrazolo[3,4-d]pyrimidine-3-carboxamide.hemi magnesium salt] |  |  |  |  |  |  |  |  |  |  |  |  |  |  |  |  | solubility [5]: low solubility to water and to an organic solvent

Continued, in another order:

Row | Weight change ratio, Adsorption ([1]; relative humidity 5%) | Weight change ratio, Desorption ([1]; relative humidity 5%) | Weight change ratio, Adsorption ([1]; relative humidity 20%) | Weight change ratio, Desorption ([1]; relative humidity 20%) | Weight change ratio, Adsorption ([1]; relative humidity 40%) | Weight change ratio, Desorption ([1]; relative humidity 40%) | Weight change ratio, Adsorption ([1]; relative humidity 60%) | Weight change ratio, Desorption ([1]; relative humidity 60%) | Weight change ratio, Adsorption ([1]; relative humidity 80%) | Weight change ratio, Desorption ([1]; relative humidity 80%) | Weight change ratio, Adsorption ([1]; relative humidity 95%) | Weight change ratio, Desorption ([1]; relative humidity 95%) | weight change at a maximum [1] | total mass of analogous substance ([2]; Opened, 4 weeks) | total mass of analogous substance ([2]; Sealed, 4 weeks) | SMILES | characteristic of channel hydrate [1] | also measured
5 | 0.42% | 0.67% | 3.08% | 3.20% | 3.60% | 3.65% | 3.88% | 3.88% | 4.09% | 4.11% | 4.39% | 4.39% | about 4.4% |  |  | C=CC(=O)N1CCC[C@@H](n2nc(C(=O)Nc3nc4ccccc4o3)c3c(N)ncnc32)C1 [Compound A, (R)-1-(1-acryloylpiperidin-3-yl)-4-amino-N-(benzo[d]oxazol-2-yl)-1H-pyrazolo[3,4-d]pyrimidine-3-carboxamide] | had the characteristic of channel hydrate | AUC(0-t) (in vivo): 5.45 µM·h; Cmax (in vivo): 3.98 µM; Tmax (in vivo): 15 min
6 | 0.00% | 0.04% | 0.07% | 0.11% | 0.16% | 0.23% | 0.28% | 0.40% | 0.42% | 0.54% | 0.81% | 0.81% |  | A (less than 0.1%) | A (less than 0.1%) | C=CC(=O)N1CCC[C@@H](n2nc(C(=O)Nc3nc4ccccc4o3)c3c(N)ncnc32)C1.C=CC(=O)N1CCC[C@@H](n2nc(C(=O)Nc3nc4ccccc4o3)c3c(N)ncnc32)C1.O=C(O)/C=C/C(=O)O [hemifumarate of Compound A, (R)-1-(1-acryloylpiperidin-3-yl)-4-amino-N-(benzo[d]oxazol-2-yl)-1H-pyrazolo[3,4-d]pyrimidine-3-carboxamide.hemifumarate] |  | mass change (increase) ([1]; relative humidity of 95%): less than 1%; solid stability (in words) ([2]; compared to hemitartrate or monophosphate): excellent solid stabilities; AUC0-6 hr relative to that of Compound A ([6]; 50 mg/kg): about two fold; Cmax relative to that of Compound A ([6]; 50 mg/kg): equivalent to that of Compound A; AUC0-6 hr [6, 7]: 10.32 µM·h; Cmax [6, 7]: 4.22 µM; Tmax [6, 7]: 30 min
